Columns and labels:
[1] = system: PCSK9 secretion; experiment: SILAC mass spectrometry of HepG2 secreted proteins: PCSK9; type: cell-based, human; conditions: HepG2, Mdivi-1 50 μM, 24 hours, vs vehicle
Description: To assess DRP1 involvement in protein secretion, secretome changes were quantified using stable isotope labeling by amino acids in cell culture (SILAC).
HepG2 cells were cultured on 100 mm dishes at a confluency of ˜60-70%. […] Media was prepared with DMEM (no lysine, no arginine; A14431-01, Thermo Fisher Scientific) to which L-glutamine (2 mM, Lonza, Walkersville, Md.), L-arginine HCl (0.17 mM; Sigma), either light L-lysine HCl (0.339 mM; Sigma) or heavy L-lysine 2HCl (0.339 mM; Cambridge Isotopes, Tewksbury, Mass.), 10% dialyzed FBS (Thermo Fisher Scientific), 1% pen/strep was added. Media was changed every two days, and cells were split as required. […]
The peptide sample was diluted [1/10-fold] and analyzed with the high resolution/accuracy Q Exactive™ mass spectrometer fronted with a Nanospray™ FLEX ion source, and coupled to an Easy-nLC1000 HPLC pump (Thermo Fisher Scientific). […] The peptide false discovery rate (FDR) was calculated using Percolator™ provided by Proteome Discoverer. […] Quantification of SILAC peak pairs was also done in Proteome Discoverer™ using up to the top three most abundant peptides. […] Significant changes were determined as proteins with an average value (ratio of Mdivi-1 treated/vehicle treated peak intensity) plus two standard deviations being less than the control value (vehicle treated/vehicle treated peak intensity=1). […]

[2] = system: cellular PCSK9 protein; experiment: Western blot, HepG2 cellular PCSK9 protein; type: cell-based, human; conditions: HepG2, Mdivi-1 50 μM, 24 hours
[3] = system: HNF1A, SREBP-2, and SREBP-1a; experiment: Real time PCR, PCSK9 regulating transcription factors; type: cell-based; conditions: HepG2 and primary human hepatocytes, Mdivi-1 50 μM, 24 hours
From the text: Human cells and mouse liver was homogenized with TriZolTM (Life Technologies, Grand Island, N.Y.) to isolate RNA. QuantiTectTM Reverse Transcription Kit (Qiagen, Hilden, Germany) was used for reverse transcription on total RNA. cDNA was generated using the Quanta gScriptTM cDNA Synthesis Kit (Bioscience Inc., Gaithersburg, Md.). mRNA levels were quantified on a 7900HT real-time PCR system (Thermo Fisher Scientific) using TaqManTM real-time PCR with the following probes: Hs02758991_g1 (human GAPDH); Mm99999915_g1 (mouse Gapdh); Hs00236329 m1 (human BCL2L1); Hs00247147_m1 (human DRP1); Hs00545399_m1 (human PCSK9); Mm01263610_m1 (mouse Pcsk9); Hs00168352_m1 (human HMGCR); […]); Hs00181192_m1 (human LDLR); Mm00440169_m1 (mouse Ldlr); Hs01088691_m1 (human SREBP1); Mm00550338_m1 (mouse Srebp1); Hs00231674_m1 (human SREBP1a); custom primer (human SREBP1c); Hs01081784_m1 (human SREBP2); Mm01306292_m1 (mouse Srebp2); Hs01005622_m1 (human FASN); […]); Hs00167041_m1 (human HNF1A); Mm00493434_m1 (mouse Hnf1a); Hs00171168 (human APOE); Hs01059118_m1 (human ABCA1); Hs01103582_s1 (human JUN). Mouse SREBP-1c was analyzed by SYBERTM green PCR with the following primers: [NT] All expression levels were normalized to GAPDH using the ΔΔCT method.

[4] = system: ischemia/reperfusion injury-induced myocardial infarction; conditions: mice; cited from earlier work

With COc1cc(-n2c(S)nc3ccccc3c2=O)c(Cl)cc1Cl [Mdivi-1, 3-(2,4-Dichloro-5-methoxyphenyl)-2,3-dihydro-2-thioxo-4(1H)-quinazolinone] the “PCSK9 secretion reduction (SILAC)” value [1] was −74%, the “Cellular PCSK9 protein abundance” value [2] was “reduced” and the “Expression of HNF1A, SREBP-2, and SREBP-1a” value [3] was “not changed”. For the same molecule, the “ischemia/reperfusion injury-induced myocardial infarction” value [4] was “reduces”.
